We go through one compound from patent US20220125877A1, “METHOD FOR TREATING COLORECTAL CANCER” (SUN YAT-SEN UNIVERSITY, priority 2019, published 2022).

For assay [1], the system named is ERK and AKT signaling pathways of KRAS mutation CRC cells in PDX tumor tissues. The assay can be described thus: Western blot of PDX tumor tissues. The assay is classed as in vivo, BALB/c nude mice. The note with it: FIG. 9F. An excerpt:
(2) Tumor tissues from PDX animals were taken and homogenated to extract protein for WB.
Background: Immunoblotting shows a protein as a band on a membrane.

The test system of a further assay is SW48 CDX. In words: Cell-derived xenograft (CDX), tumor growth. The format is in vivo, BALB/c nude mice. The note with it: 200 mg/kg in water, 30 d, vs control group, FIGS. 12G-L. The protocol:
The tumor inhibition effect of MATE1 with metformin was verified by a cell-derived xenograft transplantation model (CDX) experiment.
In the CDX, CRISPR/Cas9 was first utilized to build a KRAS^G13DSW48 cell line; MATE1 was knocked down by shRNA lentivirus transduction in SW48 to build a sh-MATE1-SW48 cell line; lentivirus was infected in KRAS^G13DSW48 cells to over-express MATE1. 1×10^6 cells were suspended in a basement membrane matrix (100 μl basement membrane matrix and 100 μl PBS) and subcutaneously injected into BALB/c nude mice. CDX mice were randomly distributed into a metformin treatment group and a control group. 200 mg/kg (equivalent to human 1000 mg) metformin was dissolved into water, and respectively taken by the 4 groups of animals; then the tumor size was measured; 30 d later, the tumor tissues were killed and weighed.

Assay [2] deals with SW48 KRAS (G13D) cell line. In words: Proliferation / cell cycle in CRISPR/Cas9 KRAS (G13D) cells. The note with it: relative to SW48, FIG. 8E. The format is cell-based, human.
Method: 1) The cells were inoculated onto a 6-well plate, and subjected to adherence growth for 12 h, then starvation treatment over the night, and treated with the addition of an agent for 24 h, then the cells were digested and washed for 3 times with PBS and centrifuged to discard supernatant; −20° C. pre-cooled 70% ethanol was added dropwise, and the cells were mixed well by vortex, and immobilized over the night at −20° C.
For assay [3], the system named is KRAS mutation CRC cells LoVo. The assay can be described thus: Plate clone formation. As to conditions: FIGS. 8A-B. The format is cell-based, human. As for the experimental part: (§1) 1) Cell inoculation: the culture solution was absorbed and discarded to collect the cells, then the cells were suspended in a treatment condition culture solution, and counted for 3 times to obtain a mean value, then the concentration of a cell suspension was adjusted to 1×10^3/ml. 2.5 ml treatment condition culture solution was respectively added to per well of a 6-well culture plate; 0.5 ml cell suspension (namely, 500 cells per well) was added per well with a final volume of 3 ml. Note that the culture plate was shaken repeatedly according to a cross-shaped direction during inoculation, such that the cells were distributed evenly as much as possible.
(§2) 3) Clone staining: the culture was stopped when the cells formed visible clones (the number of cloned cells per well was about 50-150) by the naked eyes. The culture medium was discarded, and the clones were soaked and washed for twice with PBS carefully, 1.5 ml 4% paraformaldehyde was respectively added per well for immobilization for 15 min; then the immobilization solution was discarded, and the clones were cleaned with running water slowly; 1.5 ml crystal violet working solution was added per well, standing at room temperature, and the clones were stained for 30 min, and the staining solution was cleaned with running water slowly, then the remaining clones were dried in a draught cupboard. […]

Assay [4] has as its system KRAS wildtype CRC cells SW48. In words: Plate clone formation. The format is cell-based, human. The note with it: FIGS. 8A-B. As for the experimental part:
as §1, §2

Assay [5] concerns KRAS mutation CRC cells LoVo. In words: Cell viability (CCK-8 method). The assay is classed as cell-based, human. As for the experimental part:
(§3) The cells were inoculated on a plate according to the concentration of 5000 cells/well (48-well plate, 200 μl per well). The cells were treated with different ways according to the experimental requirements, and 10 μl CCK8 solution was added after a period of time. The cells were incubated for 1 h in an incubator; 200 μl supernatant were absorbed into a 96-well ELISA plate to determine OD450 with a microplate reader.
(§4) (2) Metformin with a gradient concentration was used in vitro to treat KRAS wildtype colorectal cancer cell lines SW48 and CaCO2, KRAS G13D-mutation colorectal cancer cell lines HCT-116 and LoVo, as well as KRAS G12V-mutation colorectal cancer cell lines SW480 and SW620. In addition, the metformin with a gradient concentration was used to treat the KRAS wildtype colorectal cancer cell line SW48 transfected with KRAS G12V, KRAS G13D and KRAS G12D plasmids.
(§5) 5 μM and 10 μM lansoprazole were used to treat HCT-116 and LoVo simultaneously; metformin was used to treat the cells at the same time for 48 h; the cell viability was detected by CCK8.

Assay [6] has as its system KRAS mutation CRC cells HCT-116. The assay can be described thus: Cell viability (CCK-8 method). The assay is classed as cell-based, human. As for the experimental part: as §3, §4, §5
On the technique in general: Formazan colour is commonly taken as a measure of viable cells.

A further assay has as its system KRAS mutation PDX tumor. In words: PDX model, tumor size and weight. As to conditions: compared with KRAS wildtype tumor model; 200 mg/kg in water, 30 d, FIG. 7. The assay is classed as in vivo, BALB/c nude mice. As for the experimental part:
Use of the PDX model: tumor tissues from the clinical KRAS wildtype and mutation CRC patients were taken, the tumor cells were cultured with a digestion process; after identifying the KRAS mutation, the tumor cells were planted in an axillary fossa area of nude mice.
1) Collection of patients' tumor specimens: cancer tissues with non-necrotic edges were taken from specimens obtained after excision, and soaked into a PRMI1640 culture solution containing 5% fetal calf serum, 1×penicillin and streptomycin double-antibodies, and then transported at 4° C.;
2) the tumor tissues were cut into small pieces having a size of about 2×2×2 mm on a super clean bench, and cleaned for 3 times with the above culture solution to remove extravasated blood; […]
7) when the transplanted tumor grew to 100-200 mm^3, the nude mice were administered intragastrically everyday at 9:00 a.m. for consecutive 28 d. […] The size of the transplanted tumor was measured everyday, volume (mm^3)=[length×width^2]/2;
8) the nude mice were killed 30 d layer, and tumor tissues were taken, shoot, measured, embedded and sliced.
200 mg/kg (equivalent to human 1000 mg) metformin was dissolved into water, and respectively taken by KRAS wildtype and mutation animals; then the tumor size was measured; 30 d later, the tumor tissues were killed and weighed.

Setting [7] is: with 5 μM and 10 μM lansoprazole, 48 h, FIGS. 11A-B.

On to `CN(C)C(=N)N=C(N)N` [metformin], for which the “ERK and AKT signaling pathways in PDX tumor tissues” value in assay [1] was “inhibits”. Further, the “anti-tumor effect (tumor growth)” value with SW48 CDX is “no obvious anti-tumor effect”. The “inhibiting effect on proliferation of tumor cells with cell cycle after KRAS (G13D) mutation” value in assay [2] is “enhances the inhibiting effect”. For the same compound, the clone formation entry in assay [3] was “inhibits the clone formation”; in assay [4], “no obvious effect”. Moreover, the IC50 in assay [5] (Homo sapiens, LoVo, CCK8, FIG. 10) was 8.18 mM; in assay [6] (Homo sapiens, HCT-116, CCK8, FIG. 10), 23.7 mM. In addition, the “increase of IC50 of metformin after lansoprazole” value in assay [5] (setting [7]) and in assay [6] (setting [7]) was 1.2-2.5 times throughout. Moreover, in the assay with KRAS mutation PDX tumor, the tumor size entry was “obviously inhibit”. In addition, the tumor weight result with KRAS mutation PDX tumor is “obviously inhibit”.

For orientation: IC50 means the concentration that inhibits the measured activity by half. Low values mean greater potency in that assay, high ones weaker potency in that assay.
